Assays:
[1] = system: phospho-carboxyl terminal domain (Ser2) in HCT116 cells; experiment: p-CTD (S2) cell based Acumen assay; conditions: Homo sapiens, HCT-116, 4 hours, read-out: relative IC50 for phosphoCTD (S2)
Description: (§1) HCT116 cells (ATCC CCL-247) are cultured in McCoy's 5A Medium Modified media supplemented with 10% FBS, 1% NaPyr and 1% Pen/Strep and plated (prior to becoming 70% confluent) in 96-well flat-bottom plates at a density of 5,000 cells per well in 100 μL volume. The cells are then incubated overnight in a cell culture incubator (5% CO2, 95% Relative Humidity (RH) and 37° C.) and allowed to attach to the plate. The following morning the cells are dosed with compounds. Compound inhibitors are first solubilized at 60 μM in culture medium containing 0.6% DMSO. Subsequently compound serial dilutions (1:3) are prepared over a 6 μM to 0.00 μM range. […]
The following day cells are washed three times with PBS (100 μL/well) and incubated with 50 μL/well of secondary antibody (1:2000 dilution, Goat anti-rabbit IgM ALEXA FLUOR™ 488) in PBS for 1 hour at RT. […] Plates are analyzed on Acumen on FL2 (mean intensity), and FL3 (total intensity). Fluorescence plates are scanned with ACUMEN EXPLORER™ [Laser-scanning fluorescence microplate cytometer manufactured by TTP LABTECH LTD] to measure anti-phospho-carboxyl terminal domain at Serine 2 (pCTD). […]
The IC50 is determined by curve fitting to a four parameter logistic for each output using GENE DATA™.

CDK9/cyclinT1 = CDK9/cyclinT1 (Homo sapiens, UniProt P50750); experiment: Assay for inhibition of CDK9/CyclinT1 kinase activity (radiolabel filter binding)
Description: The IC50 determination for CDK7 and CDK9 are determined as follows.
The IC50 activity of the inhibitor is determined using radiolabel filter binding (FB) assays using the purified human recombinant enzyme in the presence of ATP and peptide substrate. The ATP concentrations chosen are at or near the enzyme Km for ATP. Reactions are carried out in 96 well polystyrene plates in a final volume of 25 μL per well. 5 μL of test compound in 20% DMSO, 10 μL of substrate solution (ATP//[^33P]ATP and CDK7/9 tide) and 10 μL of enzyme solution are mixed. […] The enzyme solution is prepared for a final concentration of 7.5 nM CDK9/cyclinT1 enzyme [Proqinase 0371-0345-1 (Lot 004)] diluted in kinase buffer. Test compounds are serially diluted 1:3 in 20% DMSO to create a 10 point curve at a starting concentration of 2 μM. 20% DMSO buffer alone without test compound is employed as high control (full activity in the absence of any inhibitor), 500 mM EDTA is used to determine the level of background in the absence of enzyme activity (low control). After mixing 5 μL of compounds with 10 μL of enzyme solution the plate is incubated for 0 or 180 minutes at 22° C. After that time the reaction is initiated by the addition of 10 μL substrate solution and incubated for 60 minutes at 22° C. […] 80 μL of MICROSCINT™ is added to each well and read on a scintillation counter after an hour. […]

CDK7/CyclinH/Mat1 = CDK7/CyclinH/Mat1 (Homo sapiens, UniProt P50613); experiment: Biochemical assay for inhibition of CDK7/CyclinH/MAT1 (radiolabel filter binding)
Description: The purpose of this assay is to measure the ability of a compound of the invention to inhibit CDK7/CyclinH/Mat1 complex kinase activity.
The IC50 activity of the inhibitor is determined using radiolabel filter binding (FB) assays using the purified human recombinant enzyme in the presence of ATP//[3^3P]ATP and peptide substrate. The ATP concentrations chosen are at or near the enzyme Km for ATP.
Reactions are carried out in 96 well polystyrene plates in a final volume of 25 μL per well. 5 μL of test compound in 20% DMSO, 10 μL of substrate solution (ATP/33PATP and CDK7/9 tide) and 10 μL of enzyme solution are mixed. […] The enzyme solution is prepared for a final concentration of 1 nM CDK7/CyclinH/Mat1 enzyme [Proqinase 0366-0360-4 Lot 002)] diluted in kinase buffer. Test compounds are serially diluted 1:3 in 20% DMSO to create a 10 point curve at a starting concentration of 20 μM. 20% DMSO buffer alone without test compound is employed as high control (full activity in the absence of any inhibitor), 500 mM EDTA is used to determine the level of background in the absence of enzyme activity (low control). After mixing 5 μL of compounds with 10 μL of enzyme solution the plate is incubated for 0 or 180 minutes at 22° C. After that time the reaction is initiated by the addition of 10 μL substrate solution and incubated for 50 minutes at 22° C. The reaction is terminated by the addition of 80 μL of cold 10% ortophosphoric solution. The Filter Plates (opaque, non-sterile filter plates) are prewashed with 10 μL of 10% orthophosphoric solution to each well. 100 μL of the mixture are transferred to a phosphocellulose filter and incubated at room temperature for 45 minutes. Filter plates are washed with 200 μL 0.5% orthophosphoric acid 3 times on a filter plate processor. Incorporation of 33Pi (counting of “cpm”) is determined by adding 80 μL of MICROSCINT™ to each well and read on a counter after an hour. Data is processed through a [sequence] […] ® tool. Data are analyzed using a 4-parameter nonlinear logistic equation (four-parameter logistic concentration-response curve): Y=bot+[(top-bot)/1+(x/IC50)slope] where Y=% inhibition, X=concentration yielding y % inhibition, Bottom=minimum value of y attained by curve, Top=maximum value of y attained by curve and Slope=steepness of curve at IC50. % Inh=[(median Max−x/median Max−median Min)]·100
IC50: concentration of compound that reduces a given response (ligand binding, enzyme response) by 50%.

[2] = system: phospho-carboxyl terminal domain (Ser5) in HCT116 cells; experiment: p-CTD (S5) cell based Acumen assay; conditions: Homo sapiens, HCT-116, 4 hours, read-out: Relative IC50 for pCTD Ser5
Description: as §1, with “are” for “are then”, “following morning,” for “following morning”, “are” for “are first”, “a 60” for “a 6”, “to 0.003” for “to 0.00”
The following day cells are washed three times with PBS (100 μL/well) and incubated with 50 μL/well of secondary antibody (1:2000 dilution, Goat anti-rabbit IgM ALEXA FLUOR™ 488) in PBS for 1 hour at room temperature. […] Plates are analyzed on Acumen on FL2 (mean intensity), and FL3 (total intensity). Fluorescence plates are scanned with ACUMEN EXPLORER™ [Laser-scanning fluorescence microplate cytometer manufactured by TTP LABTECH LTD] to measure anti-phospho-carboxyl terminal domain at Serine 5 (pCTD). […] The IC50 is determined by curve fitting to a four parameter logistic for each output using GENE DATA™.

CDK7/CyclinH/Mat1, sequence (P50613 whole entry, the tested form may be a part): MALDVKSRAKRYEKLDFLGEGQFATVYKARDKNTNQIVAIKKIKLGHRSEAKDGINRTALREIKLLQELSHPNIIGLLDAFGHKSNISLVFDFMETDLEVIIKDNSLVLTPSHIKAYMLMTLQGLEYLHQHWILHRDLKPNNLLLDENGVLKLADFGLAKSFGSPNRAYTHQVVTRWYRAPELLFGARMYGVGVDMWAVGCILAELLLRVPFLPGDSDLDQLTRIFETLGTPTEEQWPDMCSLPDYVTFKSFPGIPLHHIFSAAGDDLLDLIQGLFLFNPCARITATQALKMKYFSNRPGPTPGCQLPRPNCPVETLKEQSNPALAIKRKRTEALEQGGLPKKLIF
CDK7/CyclinH/Mat1, sequence (P51946 whole entry partner, the tested form may be a part): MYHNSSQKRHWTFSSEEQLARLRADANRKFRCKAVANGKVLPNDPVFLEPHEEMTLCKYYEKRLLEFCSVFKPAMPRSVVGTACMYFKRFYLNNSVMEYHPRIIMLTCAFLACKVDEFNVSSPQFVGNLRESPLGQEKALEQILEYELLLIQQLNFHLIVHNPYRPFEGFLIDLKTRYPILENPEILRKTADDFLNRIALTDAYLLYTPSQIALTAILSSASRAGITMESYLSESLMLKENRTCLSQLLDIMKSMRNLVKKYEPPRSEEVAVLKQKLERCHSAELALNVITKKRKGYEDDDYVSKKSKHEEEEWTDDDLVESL
CDK7/CyclinH/Mat1, sequence (P51948 whole entry partner, the tested form may be a part): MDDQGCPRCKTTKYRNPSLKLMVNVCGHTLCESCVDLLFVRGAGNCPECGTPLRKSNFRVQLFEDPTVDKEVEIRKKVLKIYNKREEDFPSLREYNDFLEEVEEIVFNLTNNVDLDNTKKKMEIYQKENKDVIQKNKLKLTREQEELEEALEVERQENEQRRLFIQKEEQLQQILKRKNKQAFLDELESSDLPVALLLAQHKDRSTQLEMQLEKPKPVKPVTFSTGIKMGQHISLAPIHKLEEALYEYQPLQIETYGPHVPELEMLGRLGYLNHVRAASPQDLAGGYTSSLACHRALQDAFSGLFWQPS
CDK9/cyclinT1, sequence (P50750 whole entry): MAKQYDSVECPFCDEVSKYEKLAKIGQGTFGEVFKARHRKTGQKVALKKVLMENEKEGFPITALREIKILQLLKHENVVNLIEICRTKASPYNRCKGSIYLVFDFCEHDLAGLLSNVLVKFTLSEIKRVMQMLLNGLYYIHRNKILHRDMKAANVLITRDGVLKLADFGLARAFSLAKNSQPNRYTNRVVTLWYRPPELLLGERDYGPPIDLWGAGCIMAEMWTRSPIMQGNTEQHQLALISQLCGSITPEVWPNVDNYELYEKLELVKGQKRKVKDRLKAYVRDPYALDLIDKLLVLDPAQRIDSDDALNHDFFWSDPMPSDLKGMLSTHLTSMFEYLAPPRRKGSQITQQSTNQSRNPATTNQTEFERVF
CDK9/cyclinT1, sequence (O60563 whole entry partner): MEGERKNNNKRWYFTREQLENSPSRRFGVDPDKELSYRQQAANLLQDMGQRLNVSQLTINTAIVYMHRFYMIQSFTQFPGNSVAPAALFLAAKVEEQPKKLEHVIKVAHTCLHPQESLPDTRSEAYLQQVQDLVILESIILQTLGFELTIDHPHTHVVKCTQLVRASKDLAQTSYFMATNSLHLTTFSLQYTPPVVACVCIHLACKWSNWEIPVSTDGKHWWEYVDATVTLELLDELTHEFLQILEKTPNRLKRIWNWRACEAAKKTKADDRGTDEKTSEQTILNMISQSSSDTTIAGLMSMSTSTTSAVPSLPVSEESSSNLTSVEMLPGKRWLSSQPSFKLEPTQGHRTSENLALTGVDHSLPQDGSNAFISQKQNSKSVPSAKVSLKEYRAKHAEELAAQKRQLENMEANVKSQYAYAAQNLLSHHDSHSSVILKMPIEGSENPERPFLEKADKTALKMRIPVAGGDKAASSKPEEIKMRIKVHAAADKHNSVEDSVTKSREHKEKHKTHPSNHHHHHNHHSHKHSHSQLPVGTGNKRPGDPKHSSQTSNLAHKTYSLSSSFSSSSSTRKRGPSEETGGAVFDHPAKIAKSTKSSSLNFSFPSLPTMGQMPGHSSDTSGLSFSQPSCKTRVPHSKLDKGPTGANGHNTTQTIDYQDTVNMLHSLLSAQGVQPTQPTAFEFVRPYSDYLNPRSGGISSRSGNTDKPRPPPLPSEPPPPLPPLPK

## Cc1cc(NC2CCN(C(=O)O[C@H]3CCN(C(=O)/C=C/CN(C)C)C3)CC2)n2ncc(C(C)C)c2n1 [Example 1, [(3S)-1-[(E)-4-(dimethylamino)but-2-enoyl]pyrrolidin-3-yl] 4-[(3-isopropyl-5-methyl-pyrazolo[1,5-a]pyrimidin-7-yl)amino]piperidine-1-carboxylate]
[1]
  IC50: > 2000 nM
CDK9/cyclinT1
  IC50: 5900 nM
CDK7/CyclinH/Mat1; IC50 in CDK7, 3 hours of preincubation of CDK7 enzyme
  IC50: 2.37 nM
CDK7/CyclinH/Mat1; IC50 in CDK7, without preincubation
  IC50: 17.3 nM
[2]
  IC50: 140 nM

Source: patent US20210032257A1, “(E)-1-(4-(DIMETHYLAMINO)BUT-2-ENOYL)PYRROLIDIN-3-YL 4-((3-ISOPROPYL-5-METHYLPYRAZOLO[1,5-A]PYRIMIDIN-7-YL)AMINO)PIPERIDINE-1-CARBOXYLATE FOR INHIBITING CDK7” (Eli Lilly and Company, priority 2017, published 2021)
